Assay results as given in PubChem BioAssay (NCI).
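Values below derive from 48-hour exposures of cells grown in 96-well plates, with endpoints linearly interpolated between the two concentrations bracketing the appropriate inhibition level. GI50 = concentration required for 50% inhibition of growth. TGI: total growth inhibition.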

How the values were obtained:
Experiment in all cases: inhibition of tumour cell growth, NCI panel, 48 h
[1] = test system: HOP-92 NSCLC
[2] = test system: M14 melanoma
[3] = test system: SF-268 CNS
[4] = test system: SK-MEL-5 melanoma
[5] = test system: U251 CNS
[6] = test system: NCI-H522 lung
[7] = test system: HT29 colon
[8] = test system: MCF7 breast
[9] = test system: K-562 leukemia
[10] = test system: NCI-H460 lung
[11] = test system: SK-OV-3 ovarian
[12] = test system: UACC-62 melanoma
[13] = test system: RPMI-8226 leukemia
[14] = test system: OVCAR-5 ovarian
[15] = test system: A498 renal
[16] = test system: MOLT-4 leukemia
[17] = test system: UACC-257 melanoma
[18] = test system: SNB-19 CNS
[19] = test system: TK-10 renal
[20] = test system: T-47D breast
[21] = test system: PC-3 prostate
[22] = test system: HCC-2998 colon
[23] = test system: NCI-H23 lung
[24] = test system: SF-539 CNS
[25] = test system: NCI-H226 lung
[26] = test system: SF-295 CNS
[27] = test system: A549 NSCLC
[28] = test system: HCT-15 colon
[29] = test system: ACHN renal
[30] = test system: HOP-62 NSCLC
[31] = test system: SW-620 colon
[32] = test system: OVCAR-8 ovarian
[33] = test system: HCT-116 colon
[34] = test system: MALME-3M melanoma
[35] = test system: IGROV1 ovarian
[36] = test system: 786-0 renal
[37] = test system: BT-549 breast
[38] = test system: MDA-MB-231 breast
[39] = test system: OVCAR-3 ovarian
[40] = test system: CAKI-1 renal
[41] = test system: LOX IMVI melanoma
[42] = test system: NCI/ADR-RES ovarian
[43] = test system: SK-MEL-28 melanoma
[44] = test system: HS 578T breast
[45] = test system: KM12 colon
[46] = test system: SNB-75 CNS
[47] = test system: SN12C renal
[48] = test system: MDA-MB-435
[49] = test system: SK-MEL-2 melanoma
[50] = test system: COLO 205 colon
[51] = test system: SR leukemia
[52] = test system: DU-145 prostate
[53] = test system: CCRF-CEM leukemia
[54] = test system: UO-31 renal
[55] = test system: HL-60(TB) leukemia
[56] = test system: RXF 393 renal
[57] = test system: OVCAR-4 ovarian

Compound `CS(=O)(=O)Nc1ccc(Nc2c3ccccc3nc3cc([N+](=O)[O-])ccc23)cc1` has a GI50 [1] of 590 nM, a TGI [1] of 3740 nM and a GI50 [2] of 1420 nM. It also gave a TGI [2] of 5810 nM, a GI50 [3] of 615 nM and a TGI [3] of 7030 nM. The GI50 [4] was 1100 nM, the TGI [4] was 4370 nM and the GI50 [5] was 911 nM. The TGI [5] was 11300 nM, the GI50 [6] was 1270 nM and the TGI [6] was 2800 nM. The GI50 [7] was 2140 nM, the TGI [7] was 6130 nM and the GI50 [8] was 51.1 nM. It also gave a TGI [8] of 2720 nM, a GI50 [9] of 1310 nM and a TGI [9] of 6960 nM. The GI50 [10] was 41 nM, the TGI [10] was 2750 nM and the GI50 [11] was 3500 nM. It also gave a TGI [11] of 15100 nM, a GI50 [12] of 1320 nM and a TGI [12] of 6310 nM. The GI50 [13] was 737 nM, the TGI [13] was 4310 nM and the GI50 [14] was 7940 nM. It also gave a TGI [14] of 23100 nM, a GI50 [15] of 1280 nM and a TGI [15] of 12500 nM. For the same compound, the GI50 [16] was 235 nM, the TGI [16] was 1190 nM and the GI50 [17] was 1820 nM. For the same compound, the TGI [17] was 6440 nM, the GI50 [18] was 1610 nM and the TGI [18] was 14900 nM. For the same compound, the GI50 [19] was 3380 nM, the TGI [19] was 11900 nM and the GI50 [20] was 107 nM. For the same compound, the TGI [20] was 2230 nM, the GI50 [21] was 1590 nM and the TGI [21] was 11800 nM. For the same compound, the GI50 [22] was 1620 nM, the TGI [22] was 4240 nM and the GI50 [23] was 1690 nM. The TGI [23] was 5470 nM, the GI50 [24] was 2230 nM and the TGI [24] was 13000 nM. The GI50 [25] was 1260 nM, the TGI [25] was 6950 nM and the GI50 [26] was 1420 nM. It also gave a TGI [26] of 7770 nM, a GI50 [27] of 317 nM and a TGI [27] of 12000 nM. For the same compound, the GI50 [28] was 1380 nM, the TGI [28] was 4010 nM and the GI50 [29] was 1420 nM. It also gave a TGI [29] of 6740 nM, a GI50 [30] of 399 nM and a TGI [30] of 3790 nM. It also gave a GI50 [31] of 1090 nM, a TGI [31] of 6000 nM and a GI50 [32] of 1950 nM. The TGI [32] was 9530 nM, the GI50 [33] was 1100 nM and the TGI [33] was 6160 nM. It also gave a GI50 [34] of 1440 nM, a TGI [34] of 4080 nM and a GI50 [35] of 1630 nM. The TGI [35] was 5170 nM, the GI50 [36] was 1390 nM and the TGI [36] was 10600 nM. It also gave a GI50 [37] of 2290 nM, a TGI [37] of 9320 nM and a GI50 [38] of 2100 nM. For the same compound, the TGI [38] was 6100 nM, the GI50 [39] was 2050 nM and the TGI [39] was 5870 nM. It also gave a GI50 [40] of 2010 nM, a TGI [40] of 7430 nM and a GI50 [41] of 922 nM. For the same compound, the TGI [41] was 2780 nM, the GI50 [42] was 10000 nM and the TGI [42] was 26500 nM. The GI50 [43] was 2450 nM, the TGI [43] was 7760 nM and the GI50 [44] was 2420 nM. It also gave a TGI [44] of 13400 nM, a GI50 [45] of 854 nM and a TGI [45] of 3760 nM. For the same compound, the GI50 [46] was 1720 nM, the TGI [46] was 11800 nM and the GI50 [47] was 807 nM. The TGI [47] was 8430 nM, the GI50 [48] was 3320 nM and the TGI [48] was 9060 nM. For the same compound, the GI50 [49] was 3460 nM, the TGI [49] was 8850 nM and the GI50 [50] was 1430 nM. The TGI [50] was 6060 nM, the GI50 [51] was 83.7 nM and the TGI [51] was 3160 nM. For the same compound, the GI50 [52] was 296 nM, the TGI [52] was 6500 nM and the GI50 [53] was 352 nM. The TGI [53] was 2790 nM, the GI50 [54] was 2390 nM and the TGI [54] was 13600 nM. The GI50 [55] was 1690 nM, the TGI [55] was 5880 nM and the GI50 [56] was 1890 nM. It also gave a TGI [56] of 4860 nM, a GI50 [57] of 2900 nM and a TGI [57] of 10400 nM.
